Laboratory results published in a melting point compilation (Tetko et al.; mined from patent text by program, amines drawn as free bases though some values may be those of a salt).

Row | Compound | melting point [°C]
1 | CC(=O)Nc1cc(C2=NOC(c3cc(Cl)cc(Cl)c3)(C(F)(F)F)C2)ccc1-n1cncn1 (centres undefined) | 230 to 233
2 | O=C1CCC2(CC1)Cc1ccccc1C2 | 91 to 94
3 | N#CCCCCCCCCCOc1cccc(C(N)=O)c1 | 96 to 97
4 | CC(C)(C)C(NC(=O)c1ccc(Br)cc1)NC(=NC#N)Nc1cccnc1 (centres undefined) | 180 to 181
5 | CC(=O)Nc1c(OC(C)=O)cc(C)c(C)c1[N+](=O)[O-] | 209 to 211
6 | Cc1cc(OCc2ccc(-c3ccccc3-c3nnn(C(c4ccccc4)(c4ccccc4)c4ccccc4)n3)cc2)c(-c2cncnc2)c(C)n1 | 171 to 172
7 | CCOc1c(C)c(N2CCN(c3ccc(OC)cc3)CC2)c(C)c2c1OC(C)C2 (centres undefined) | 106 to 108
8 | [O-][N+](O)=CCN=Nc1ccccc1 | 95 to 97
9 | Oc1cc2c3cc(O)c(O)cc3n(Cc3ccccc3)c2cc1O | 266 to 271
10 | Cc1ccc(S(=O)(=O)N2CCCC2c2cccc(F)c2)cc1 (racemic) | 116
11 | O=C(Nc1cccc(S(=O)(=O)NCc2cccnc2)c1)c1cnn2c(C(F)F)cc(-c3ccc(C(F)(F)F)cc3)nc12 | 256
12 | CCc1cccc(C)c1C(=O)N[C@@H](Cc1ccc(-c2c(C(F)(F)F)cc(C)n(C)c2=O)cc1)C(=O)O | 219 to 221
13 | O=[N+]([O-])c1cc(Cl)c([N+](=O)[O-])c(Cl)c1 | 109 to 112
14 | CCC(=O)CSc1cc(C(C)(C)C)c(O)c(C(C)(C)C)c1 | 55 to 57
15 | CCOC(=CC=O)C1CCC2C3CCC4CC(O)CCC4(C)C3C(=O)CC12C (centres undefined) | 175 to 178
16 | O=C(O)c1cn(C2CC2)c2c(F)c(F)c(F)c(NC(=O)C(F)(F)F)c2c1=O | 188
17 | O=C(O)CCCc1cc2nc(C(F)(F)F)ccc2n1S(=O)(=O)c1ccc2c(c1)OCO2 | 161
18 | O=C(NN=CC=Cc1ccc([N+](=O)[O-])o1)c1cc2ccccc2cc1O | 259
19 | Cc1cccc2c1c(C(=O)CC1CCCCCC1)cn2CCO | 98 to 104
20 | O=C1c2ccccc2C(=O)c2oc(-c3ccccc3Cl)nc21 | 216
21 | Cc1cc(C(=O)N2Cc3cccn3Cc3ccccc32)ccc1N | 232 to 234
22 | CCCCc1nc(CO)c(SCC)n1Cc1ccc(-c2ccccc2C(=O)OC)cc1 | 110

Row | Compound | melting point [°C]
23 | C=C(c1ccc(-c2ncnn2COCC)cc1)C(O)(Cn1cncn1)c1ccc(F)cc1F (centres undefined) | 160 to 162
24 | Cc1cc(C=O)ccc1NC(=O)OC(C)(C)C | 109 to 111
25 | CCN(CC)CCNC(=O)c1cc(Cl)c(N)cc1OCCC(C)OC (centres undefined) | 76 to 78
26 | CCCCCCCCCCNC(=O)c1ccc([N+](=O)[O-])cc1 | 89 to 91
27 | O=C(O)c1cc(C(F)(F)F)cc([N+](=O)[O-])c1O | 166 to 168
28 | COc1ccc(N2CCOCC2)c2sc(C(=O)NC3CCN(C(=O)OC(C)(C)C)CCC3O)nc12 (centres undefined) | 71 to 73
29 | O=C(Cn1c(-c2ccccc2)ncc(NC(=O)OCc2ccc(C(=O)O)cc2)c1=O)NC(Cc1ccccc1)C(=O)C(F)(F)F (centres undefined) | 202 to 207
30 | O=C1Nc2cccnc2N(C(=O)N2CCC(CCCN3CCCCC3)CC2)c2ccccc21 | 200
31 | O=C(Nc1ccccc1N1CCc2ccccc21)c1ccccc1 | 73 to 76
32 | Cc1cc(Br)ccc1N1C(=O)c2ccc(Cl)cc2C1=O | 210 to 212
33 | CS(=O)(=O)c1ccc(-n2nc(CNC(=O)Nc3ccc(OC(F)(F)F)cc3)cc2-c2ccccc2)cc1 | 153 to 156
34 | O=C1c2cccc3cccc(c23)C(=O)N1C1CCC(O)CC1 (centres undefined) | 240 to 242
35 | Cc1cn(C(C)(C)C(=O)N(C)C)nc1-c1cc(Cl)ccc1Cl | 130
36 | C#CCOC1c2ccccc2Oc2ccccc21 | 74 to 76
37 | CC12CC3(C)CC(CO)(C1)CC(CO)(C2)C3 | 158 to 161
38 | COc1ccc(-n2c(=O)n(O)c(=O)c3cc(F)c(N4CCCC4)cc32)cc1 | 224 to 226
39 | Cc1cc(C)n(-c2nc(Nc3cccc4cccnc34)c3ccccc3n2)n1 | 184 to 185
40 | O=C(Nc1ccc(C(F)(F)F)cc1)C1=NN(c2ccc(Cl)c(Cl)c2)C(c2ccc(F)cc2)C1 (centres undefined) | 242 to 243
41 | CC(C=CCO)Oc1ccc(Oc2cnc3cc(F)ccc3n2)cc1 (centres undefined) | 109 to 111
42 | Cc1sc2c(c1CCN1CCC(c3noc4cc(F)ccc34)CC1)CCN(C)C2 | 100 to 103
43 | FC(F)(F)c1ccc2c(c1)SSSSS2 | 44 to 50
44 | OCC(O)Cc1nccn1CCCCc1ccc(OCc2coc(/C=C/c3ccc(F)cc3)n2)cc1 (centres undefined) | 114 to 116

Row | Compound | melting point [°C]
45 | CCOC(=O)CN(c1ccncc1F)n1ccc2ccccc21 | 86 to 87
46 | N#CN1c2ccccc2C=Cc2ccccc21 | 108 to 109
47 | CCCNc1nc(NCCC)nc(N2CCN(C(=O)Nc3cc(C)c(C)nc3OC)CC2)n1 | 140 to 143
48 | CC(C)(C)CCc1ccc(C(=O)NNS(=O)(=O)c2ccccc2)cc1 | 168 to 169
49 | CCN1C(=O)CN=C(c2ccccc2F)c2cc(C(C)O)ccc21 (centres undefined) | 48 to 50
50 | CN(CCCCCNC(=NCCSCc1csc(NC(=N)N)n1)NC#N)CCC(c1ccc(Cl)cc1)c1ccccn1 (centres undefined) | 87 to 90
51 | O=C(NCC1CCC(CNS(=O)(=O)c2ccc3ccccc3c2)CC1)C1CCc2ccccc2C1 (centres undefined) | 225 to 226
52 | Cn1nc(-c2c(NCc3ccccn3)nc(N)nc2-c2ccccc2)ccc1=O | 248 to 250
53 | O=C(NCCCO)c1cccc(-c2ccc3c(n2)N(Cc2ccc(Cl)cc2Cl)CC3)c1 | 145 to 146
54 | O=C(c1ccc(F)cc1)c1ccnc(Cl)c1 | 60 to 63
55 | C#CCOc1cc(-c2ncc(C(F)(F)F)cc2Cl)ccc1Cl | 102 to 103
56 | CCCC(Cc1ccc(Cl)cc1)C1(S(=O)(=O)c2ccc(OC)cc2)SC(=O)NC1=O (centres undefined) | 172 to 174
57 | CCN(Cc1ccc(Cl)nc1)C1=C([N+](=O)[O-])C2CCC(O2)N1C (centres undefined) | 125 to 126
58 | CCCN(CCC)C1Cc2c[nH]c3ccc(C(=O)CC)c(c23)C1 (centres undefined) | 149 to 150
59 | Cc1cc(-c2nc(CCl)co2)sc1Br | 71 to 72
60 | COc1ccc(N(C(=O)CN2C(=O)C(Cc3cc(C)nn3Cc3ccccc3)C(=O)N(c3ccccc3)c3ccccc32)C(C)C)cc1 (centres undefined) | 117 to 120
61 | Nc1cnc2ccsc2c1 | 121 to 123
62 | CCN1CN2C(=N1)C(c1ccccc1Cl)=NCc1ccsc12 | 153 to 154
63 | C/C(=N\OC(=O)CN(C)C)[C@H]1CC[C@H]2[C@@H]3CCC4=CC(=O)CC[C@]4(C)[C@H]3CC[C@]12C | 129 to 131
64 | CS(=O)(=O)c1ccc(-n2nc(C(F)(F)F)cc2-c2nc3ccc(Cl)cc3s2)cc1 | 195 to 196
65 | CCOC(=O)NC(=N)c1ccc(N2CCN(c3ccc(CCC(=O)OC)cc3)S2(=O)=O)cc1 | > 275

More lines, now with the values ahead:

Row | melting point [°C] | Compound
66 | 236 to 241 | Cc1ccc(C(=O)n2nc(Nc3cccc(OCC#N)c3)nc2N)cc1
67 | 198 to 201 | O=C(O)CN1C(=O)C(=Cc2ccc(OCCc3ccccc3)c(OCc3ccccc3)c2)SC1=S
68 | 102 to 104 | CCN(C)C(C)CN1CCc2c(c(=O)oc3cc(OC)ccc23)C1 (centres undefined)
69 | 208 | CC(C)OC(=N)c1sc2ccccc2c1O
70 | 139 to 140 | CCOC(=O)c1cccc(C=C(C(=O)O)c2ccccc2)c1
71 | 201 to 205 | CCCC(=O)Nc1cccc(C2(c3cc(C(=O)CC)n(CC)c3)N=C(N)N(C)C2=O)c1 (centres undefined)
72 | > 330 | CNc1nc2cccc(C(=O)O)c2s1
73 | 103 to 105 | CCOC(=O)OCCn1nc(-c2cc(C(C)(C)C)c(O)c(C(C)(C)C)c2)c2cccnc21
74 | 144 to 147 | O=C(O)CCCCCc1cccc2cncn12
75 | 41 | O=[N+]([O-])c1cc2c(cc1Oc1ccccc1)CCC2
76 | 285 to 287 | O=C(O)c1ccc2nc3n(c(=O)c2c1)CCC3=Cc1ccccc1
77 | 124 to 136 | COC(=O)C1Oc2ccccc2C(C)c2cc(Cl)ccc2O1 (centres undefined)
78 | 230 to 231 | CC(C)COc1ccccc1-c1ncc(C(N)=O)c(=O)[nH]1
79 | 215 to 217 | COc1cccc2c(=O)c(OCC(=O)O)coc12
80 | 216 to 217 | Cc1cc(-c2nc3c(Cl)cccc3c(=O)[nH]2)cc(C)c1OCCN1CCCC1
81 | 190 to 193 | CC(C)S(=O)(=O)NC(=O)c1cccc(N)c1
82 | 150 to 151 | COCC(C)Oc1ccc2c(c1)c(-c1cc3cccnc3[nH]1)cn2C (centres undefined)

Row | melting point [°C] | Compound
83 | 153 to 155 | COCCOC(=O)Nc1cccc(C)c1CNc1cccn2c(C=O)c(C)nc12
84 | 139 to 144 | CNC(=O)N(O)Cc1ccc(OCCc2nc(-c3ccccc3)oc2C)cc1
85 | 124 to 130 | COc1cc2ncc(C#N)c(Nc3ccc(Sc4ccccc4)c(Cl)c3)c2cc1OC
86 | 190 | CC(=O)COc1cc2oc(=O)cc(C)c2cc1C
87 | 61 to 62 | CC(C)(C)OC(=O)CNNC(=O)OCc1ccccc1
88 | 270 to 272 | CCS(=O)(=O)c1ccc2c3c(cccc13)C(=O)N2
89 | 120 | COc1cc(C(=O)CBr)ccc1OCC(F)(F)F
90 | 117 to 120 | COc1ccc(C(=O)c2ccccc2Cl)c(Cl)c1Cl
91 | 115 | COC(=O)c1c(Oc2cccc(C)c2C)nn(C(=O)OC)c1C
92 | 179 to 181 | COc1ccc(-c2nccc(C(N)=O)c2N)cc1
93 | 157 to 158 | COc1cccc(-n2c(=O)n(OCc3ccccc3)c(=O)c3cc(F)c(F)cc32)c1
94 | 101 to 103 | COc1ccc(CN2CCc3c(c(=O)oc4cc(OC)ccc34)C2)cc1
95 | 151 to 152 | COc1ccc(CC(C)(C)C(=O)O)cc1C(=O)NCc1ccc(C(F)(F)F)cc1
96 | 129 to 131 | COc1ccc(N(CCC(=O)N(C)CC(=O)O)C(=O)c2ccc(Cl)cc2)cc1
97 | 182 to 184 | COc1ccc(S(=O)(=O)NCc2ccco2)c2cc(C(C)=O)oc12
98 | 116 to 118 | COC(=O)c1ccc(OS(N)(=O)=O)cc1
99 | 160 to 170 | CCOC(=O)c1cc(-c2ccc(OCc3ccccc3)cc2)n[nH]1
